# Experimental data as given in US20130296347A1, “Compositions and Methods for Prophylaxis and Treatment of Addictions” (Omeros Corporation, priority 2007, published 2013).
# Where “and” joins values, the source holds several entries; their conditions need not be identical. Equal values may be shown once. Entries after “also recorded” stand apart in the source; their conditions may differ.
# Assays:
# heavy tobacco smokers [1] = assay: Pilot clinical study in heavy tobacco smokers; assay type: in vivo, human; parameters: overall smoking reduction / inhibition of smoking prior to dropping out: concentration or dose not given beside the values; settings: for Percent inhibition of smoking: baseline data expressed as 100%: T = 0, smoking before entering the treatment; for Percent inhibition of smoking: baseline data expressed as 100% / Percent inhibition of smoking: individual patients; for craving score (visual analogic craving scale): over treatment
# Procedure: Data were recorded for two months, during which patients were seen by the physician every other week. Patients were instructed to record in a personal logbook the number of cigarettes per day and the time of the day smoking occurred. At the end of the study, the logbooks were returned to the clinical personnel who analyzed the data. […] During the first month of treatment, every two weeks, ACTH and cortisol levels were also monitored to evaluate HPA activation before and during treatment.
# msP rats [2] = assay: Acute voluntary ethanol intake, free choice 10% alcohol 24 hours a day; assay type: in vivo, rat; settings: for ethanol intake, drug alone (post-hoc): low dose given at 12 hours and 1 hour before access, partner drugs at doses of the examples; for ethanol intake in a pilot study: low dose: fluoxetine 3.0, mirtazapine 5.0, topiramate 30.0, levetiracetam 100.0, gabapentin 60.0 mg/kg OS, ondansetron 1.0, antalarmin […] IP
# Procedure: MsP rats were first trained to drink 10% (w/v) alcohol for 24 hours a day (free choice between water and ethanol). […] Before starting the treatment, rats were trained to gavage administration procedures for three days, during which they received vehicle (distilled water). […] Drinking experiments started at the beginning of the dark cycle. Alcohol, water and food intakes were monitored at 2, 8 and 24 hours after ethanol was made available.
# Before starting the treatment, rats were trained to gavage and IP administration procedures for three days. Experiment was conducted in a between subject design (n=22). […] Drinking experiments started at the beginning of the dark cycle. Alcohol, water and food intakes were monitored at 2, 8 and 24 hours after ethanol was made available.
# The drinking experiments were conducted at the beginning of the dark cycle, and alcohol, water and food intakes were monitored at 2, 8 and 24 hours after ethanol was made available.
# (§1) MsP rats were first trained to drink 10% (w/v) alcohol for 24 hours a day (free choice between water and ethanol). […] Rats treated with drug vehicles served as a control. Before starting the treatment, rats were trained to gavage administration for three days, during which they received drugs vehicle (distilled water). […] Drinking experiments started at the beginning of the dark cycle. Alcohol, water, and food intakes were monitored at 2, 8 and 24 hours after ethanol was made available.
# as §1, with “water” for “water,”
# as §1, with “water” for “water,”
# as §1, with “water” for “water,”
# as §1, with “water” for “water,”
# as §1, with “water” for “water,”
# heavy tobacco smokers [3] = assay: Pilot clinical study in heavy tobacco smokers; assay type: in vivo, human
# CD mice [4] = settings: morphine 30 mg/kg IP twice a day
# Procedure: Morphine hydrochloride was purchased from Salars (Milano, Italy). Morphine (30 mg/kg) was dissolved in NaCl 9% and was injected intraperitoneally (IP) twice a day at the indicated doses in a volume of 0.2 ml per mice.
# CD mice [5] = assay: Tail-flick test, morphine-induced analgesic tolerance; assay type: in vivo, mouse; settings: morphine 30 mg/kg IP twice a day
# Procedure: All procedures were conducted in adherence to the European Community Council Directive for Care and Use of Laboratory Animals.
# Mice were divided into 6 groups. Group 1 (n=8) received drug vehicles (veh/veh). […] Animals were treated twice daily (between 9:00 and 10:00 a.m. and 9:00 and 10:00 p.m.).
# Morphine hydrochloride was purchased from Salars (Milano, Italy). Morphine (30 mg/kg) was dissolved in NaCl […] and was injected intraperitoneally (IP) twice a day at the indicated doses in a volume of 0.2 ml per mice. […] It was dissolved in distilled water and was administered per o.s. at the doses of 10 mg/kg and 30 mg/kg in a volume of 0.6 ml per mice.
# Two different tests were used to monitor analgesic responses. The tail-flick test was performed 45 min after the morning injection of morphine, and the tail-immersion test was performed 45 min after the evening injection of morphine.
# For the tail-flick test, each mouse was gently restrained in a soft tissue pocket, and the tail (1 cm from the tip) was exposed to a hot light beam. Latency for tail-flick was measured with a 6 seconds cut-off time. For the tail-immersion test, each mouse was restrained in a soft tissue pocket, and the distal half of the tail dipped into a water bath set at 52 C°. Latency for removing the tail from the hot water was measured with a 10 seconds cut-off time.
# Long Evans rats = assay: Yohimbine-induced reinstatement of nicotine seeking; assay type: in vivo, rat; settings: yohimbine 2.0 mg/kg/ml; p<0.001
# Procedure: Stress and anxiety are major factors in resuming nicotine use in former abstinent users. […] Reinstatement experiments and relative drug treatments were performed every third day. Between reinstatements, extinction baseline was re-established.
# alcoholic patients = assay: Observational study of alcohol abuse in human patients; assay type: in vivo
# Text: ACT)+psychotherapy. […] Patients were instructed to record in a personal logbook the number of drinks per day and the time of the day drinks occurred. At the end of the study, the logbooks were returned to the clinical personnel who analyzed the data. […] In addition, biochemical parameters to ascertain alcohol detoxification and to measure recovery of physiological functions (i.e., hepatic function) were monitored monthly. Hematological parameters measured included: mean corpuscular volume (MCV); gamma-GT; aspartate aminotransferase (AST); alanine aminotransferase (ALT); and carbohydrate-deficient transferring (CDT). MCV and CDT are biomarkers for ethanol consumption, and GGT, ALT and AST are biomarkers for hepatic functionality. Data were analyzed by analysis of variance followed by Newman-Keuls post hoc tests when appropriate.
# [6] = test system: Marchigian Sardinian alcohol-preferring (msP) rats; assay: Subchronic (7 days) voluntary ethanol intake, 10% alcohol available 24 hours/day; assay type: in vivo, rat; settings: 7 days; naltrexone […] IP alone or with pioglitazone 10.0 or 30.0 mg/kg OS
# Procedure: (§2) At the beginning of the experiments, msP rats were allowed free choice between water and 10% (v/v) alcohol 24 h/day for at least 15 days. The fluids were offered in graduated drinking tubes equipped with metallic drinking spouts. The position (to the right or left) of alcohol and water drinking tubes was changed daily to avoid the development of side preference. Water and food were available ad libitum, while alcohol access was either restricted to 2 hours/day (Examples 1 and 2) or was available 24 hours/day (Examples 3 and 4). Alcohol, water and food intakes were measured.
# (§3) […]. Before starting the treatment, rats were trained to gavage administration procedures for three days, during which they received vehicle (distilled water).
# Alcohol, water and food intakes were monitored at 2, 8 and 24 hours. Fluids and food intakes were monitored for three additional days after the end of the drug treatment period.
# […]. According to a between-subject design, four groups of msP rats (N=9/group) were prepared as described in Example 3. […] […]. Alcohol, water and food intakes were monitored at 2, 8 and 24 hours. Fluids and food intakes were monitored for three additional days after the end of the drug treatment period.
# msP rats [7] = assay: Yohimbine-induced (stress) reinstatement of alcohol seeking; settings: naltrexone 0.25 and 1.0 mg/kg IP 1 hour before test
# Text: Stress-induced reinstatement of alcohol-seeking experimental procedures consisted of three phases: (1) training phase; (2) extinction phase; and (3) reinstatement phase, as described below.
# For the training phase, after completion of the fading procedure, msP rats were trained to self-administer 10% (v/v) alcohol for 15 days in 30-min daily sessions under a FR1 schedule of reinforcement. During the infusion, a stimulus house light was turned on for 5 s (time out; TO).
# For the extinction phase, after the last alcohol self-administration session, animals were subjected to 30-min extinction sessions for 15 consecutive days.
# The day after the last extinction session, rats were subjected to the reinstatement test.
# Animals received all drug treatments according to a counterbalance Latin square design. A 3-day interval, during which animals were subjected to extinction sessions, was allowed between drug tests.
# msP rats [8] = assay: Cue-induced reinstatement of alcohol seeking; assay type: in vivo, rat; settings: naltrexone 0.25 and 1.0 mg/kg 1 hour before test
# Procedure: Cue-induced reinstatement of alcohol-seeking behaviour experimental procedures consisted of three phases: (1) conditioning phase; (2) extinction phase; and (3) reinstatement phase, as described below.
# For the conditioning phase, at the completion of the fading procedure (see above), in 30 min daily sessions, animals were trained to discriminate between 10% alcohol and water. Beginning with self-administration training at the 10% alcohol concentration, discriminative stimuli (SD) predictive of alcohol versus water availability were presented during the alcohol and water self-administration sessions, respectively. The discriminative stimulus for alcohol consisted of the odour of an orange extract (S^+) whereas water availability (i.e. no reward) was signalled by an anise extract (S^−). The olfactory stimuli were generated by depositing six to eight drops of the respective extract into the bedding of the operant chamber. In addition, each lever-press resulting in delivery of alcohol was paired with illumination of the chamber's house light for 5 sec (CS^+). The corresponding cue during water sessions was a 5 second tone (70 dB) (CS). Concurrently with the presentation of these stimuli, a 5 sec. time-out period was in effect, during which responses were recorded but not reinforced. The olfactory stimuli serving as S^+ or S^− for alcohol availability were introduced one minute before extension of the levers and remained present throughout the 30-min. sessions. The bedding of the chamber was changed and bedding trays were cleaned between sessions. During the first three days of the conditioning phase, the rats were given alcohol sessions only. Subsequently, alcohol and water sessions were conducted in random order across training days, with the constraint that all rats received a total of 10 alcohol and 10 water sessions.
# For the extinction phase, after the last conditioning day, rats were subjected to 30-min extinction sessions for 15 consecutive days. During this phase, sessions began by extension of the levers without presentation of the SD. […]
# [9] = test system: Marchigian Sardinian alcohol-preferring (msP) rats; assay: Acute voluntary ethanol intake, alcohol access restricted to 2 hours/day; assay type: in vivo, rat
# Procedure: as §2
# . After acquisition of a stable baseline of ethanol intake (6-8 g/kg bw; daily), alcohol access was restricted to 2 hours a day at the beginning of the dark phase. Water and food were freely available.
# as §3
# Treatments were carried out at intervals of at least three days. […] Drinking experiments were conducted right at the beginning of the dark cycle. Alcohol, water and food intakes were monitored at 30, 60, 90 and 120 minutes after ethanol was made available.
# The msP rats (n=8) were prepared for the study as described in Example 1. After acquisition of a stable baseline of ethanol intake, alcohol access was restricted to 2 hours a day at the beginning of the dark phase. Water and food were freely available. […]. The experiment was conducted using a within subject counterbalanced Latine square design where each animal received all drug doses.
# These experiments were conducted at the beginning of the dark cycle and alcohol, and water and food intakes were monitored at 30, 60, 90 and 120 minutes after ethanol was made available.
# [10] = pioglitazone 30 mg/day or naltrexone 50 mg/day + psychotherapy
compound,measurement,setting,value
c1cnc2cc3c(cc2n1)[C@@H]1CNC[C@H]3C1 [varenicline],Percent inhibition of smoking: baseline data expressed as 100%,heavy tobacco smokers [1],100%
same,craving score (visual analogic craving scale),heavy tobacco smokers [1],highest reduction
same,STAI anxiety score,heavy tobacco smokers [1]; over treatment weeks,significantly reduced
same,weekly smoked cigarettes compared to bupropione (post hoc),heavy tobacco smokers [1]; p<0.05,significant difference
same,subjects reaching complete abstinence,"heavy tobacco smokers [1]; pioglitazone 4 patients, varenicline 3 patients",one
same,overall smoking reduction,heavy tobacco smokers [1]; three participants receiving varenicline,95%
CC[C@@H](C(N)=O)N1CCCC1=O [levetiracetam],"ethanol intake, drug alone (post-hoc)",msP rats [2]; pioglitazone 10 mg/kg OS,did not significantly modify
same,ethanol intake in a pilot study,msP rats [2],did not reduce ethanol intake
CCCCN(CC)c1nc(C)nc2c1c(C)c(C)n2-c1c(C)cc(C)cc1C [antalarmin],"ethanol intake, drug alone (post-hoc)",msP rats [2]; pioglitazone 10 mg/kg OS,did not significantly modify
same,ethanol intake in a pilot study,msP rats [2],modestly reduced
O=C(Nc1ccccc1)c1cc([N+](=O)[O-])ccc1Cl [GW9662],ethanol intake,msP rats [2]; GW9662 5 μg/rat ICV alone,did not significantly affect
same,pioglitazone-induced reduction of ethanol intake,msP rats [2]; GW9662 1.0 and 5.0 mg/kg IP with pioglitazone 30 mg/kg OS,blocked the effect of pioglitazone in a dose related manner
same,ethanol drinking,"msP rats [2]; GW9662 alone, 1.0 and 5.0 mg/kg IP",did not modify
CNCCC(Oc1ccc(C(F)(F)F)cc1)c1ccccc1 (centres unmarked) [fluoxetine],"ethanol intake, drug alone (post-hoc)",msP rats [2]; pioglitazone 10 mg/kg OS,did not significantly modify
same,ethanol intake in a pilot study,msP rats [2],did not reduce ethanol intake
CC(NC(C)(C)C)C(=O)c1cccc(Cl)c1 (centres unmarked) [bupropione],Percent inhibition of smoking,"heavy tobacco smokers [3]; T = 10 weeks, individual patients, listed as Bup",40% and 45%
same,smoking reduced,heavy tobacco smokers [3]; two bupropione patients after 10 weeks of drug administration,about 40%
same,Percent inhibition of smoking: baseline data expressed as 100%,heavy tobacco smokers [1],100%
same,Percent inhibition of smoking,"heavy tobacco smokers [1]; T = 2 weeks of treatment, Pio 15-30 mg/daily, Var 0.5 to 2.0 mg/day",100%
same,Percent inhibition of smoking,"heavy tobacco smokers [1]; T = 4 weeks, listed as Bup",20% and 18% and 15%
same,Percent inhibition of smoking,"heavy tobacco smokers [1]; T = 6 weeks, listed as Bup",28% and 20% and 21%
same,Percent inhibition of smoking,heavy tobacco smokers [1]; T = 8 weeks,34%
same,inhibition of smoking prior to dropping out,heavy tobacco smokers [1]; bupropione patient who dropped out after four weeks,20%
same,craving score (visual analogic craving scale),heavy tobacco smokers [1],less effective
CN1CCN2c3ncccc3Cc3ccccc3C2C1 (centres unmarked) [mirtazapine],"ethanol intake, drug alone (post-hoc)",msP rats [2]; pioglitazone 10 mg/kg OS,did not significantly modify
same,ethanol intake in a pilot study,msP rats [2],did not reduce ethanol intake
NCC1(CC(=O)O)CCCCC1 [gabapentin],"ethanol intake, drug alone (post-hoc)",msP rats [2]; pioglitazone 10 mg/kg OS,did not significantly modify
same,ethanol intake in a pilot study,msP rats [2],did not reduce ethanol intake
CN1CC[C@]23c4c5ccc(O)c4O[C@H]2[C@@H](O)C=C[C@H]3[C@H]1C5 [morphine],tail-immersion analgesic effect on test day 9,CD mice [4],marginally significant
same,"tail-immersion latency on day 1, 3, 5, and 7",CD mice [4]; p<0.01,significantly increased
same,time to tail-flick on test days 7 and 9,CD mice [5],non significant difference from controls
same,"time to tail-flick on day 1, 3 and 5",CD mice [5]; p<0.01,significantly increased
COC(=O)[C@@H]1[C@H]2C[C@H]3c4[nH]c5ccccc5c4CCN3C[C@@H]2CC[C@@H]1O [yohimbine],reinstatement of responding compared to extinction,Long Evans rats,significant reinstatement
CC1(C)O[C@@H]2[C@@H](CO[C@@]3(COS(N)(=O)=O)OC(C)(C)O[C@@H]23)O1 [topiramate],"ethanol intake, drug alone (post-hoc)",msP rats [2]; pioglitazone 10 mg/kg OS,did not significantly modify
same,ethanol intake in a pilot study,msP rats [2],did not reduce ethanol intake
same,"ethanol intake at 2 hours, drug alone","msP rats [2]; pioglitazone 10 mg/kg OS, topiramate 30.0 mg/kg OS, p<0.05",significant reduction
Cc1nccn1CC1CCc2c(c3ccccc3n2C)C1=O (centres unmarked) [ondansetron],"ethanol intake, drug alone (post-hoc)",msP rats [2]; pioglitazone 10 mg/kg OS,did not significantly modify
same,ethanol intake in a pilot study,msP rats [2],did not reduce ethanol intake
O=C1CC[C@@]2(O)[C@H]3Cc4ccc(O)c5c4[C@@]2(CCN3CC2CC2)[C@H]1O5 [naltrexone],"hepatic parameters (GGT, ALT, AST)",alcoholic patients; 2-month treatment,ameliorated
same,Depression Scale M.A.D.R.S (mean score values),alcoholic patients; T = 1.2,18
same,Depression Scale M.A.D.R.S (mean score values),alcoholic patients; T = 1.3,16
same,Depression Scale M.A.D.R.S (mean score values),alcoholic patients; T = 1.4,17
same,Depression Scale M.A.D.R.S (mean score values),alcoholic patients; T = 2.1,17
same,Depression Scale M.A.D.R.S (mean score values),alcoholic patients; T = 2.2,15
same,"effect on daily drinks, comparison of drugs","alcoholic patients; first two weeks of treatment, P<0.05",more effective than pioglitazone
same,daily ethanol intake (number of daily drinks),alcoholic patients; [10],significantly reduced
same,number of abstinence days,alcoholic patients; [10],increased
same,OCDS versus controls,"alcoholic patients; post hoc, P<0.001",statistically significant difference
same,all five blood biomarkers versus controls (psychotherapy alone),"alcoholic patients; post hoc, P<0.001",statistical difference
same,ethanol intake at 8 and 24 hours,[6],not at 8 and 24 hours
same,ethanol intake at 2 hours,[6],significantly reduced
same,"voluntary ethanol intake, overall",[6],significantly reduced
same,yohimbine-induced reinstatement of alcohol seeking,msP rats [7],did not significantly reduce; also recorded: not modified
same,cue-induced (conditioned) reinstatement of alcohol-seeking,msP rats [8],significantly reduced
same,ethanol intake at 120 minutes,[9]; naltrexone […] IP alone or with pioglitazone 10 mg/kg OS,did not show significant effects
same,"ethanol intake at 30, 60, and 90 minutes",[9]; naltrexone […] IP alone or with pioglitazone 10.0 or 30.0 mg/kg OS,significantly reduced
